One data set concerns SARS-CoV-2. It is filed as cell-based. The following applies: Vero cells.
In the next data set the target is hERG (Homo sapiens, UniProt Q12809). The settings on record: even at 100 µM.
Sequence of hERG (Q12809 whole entry): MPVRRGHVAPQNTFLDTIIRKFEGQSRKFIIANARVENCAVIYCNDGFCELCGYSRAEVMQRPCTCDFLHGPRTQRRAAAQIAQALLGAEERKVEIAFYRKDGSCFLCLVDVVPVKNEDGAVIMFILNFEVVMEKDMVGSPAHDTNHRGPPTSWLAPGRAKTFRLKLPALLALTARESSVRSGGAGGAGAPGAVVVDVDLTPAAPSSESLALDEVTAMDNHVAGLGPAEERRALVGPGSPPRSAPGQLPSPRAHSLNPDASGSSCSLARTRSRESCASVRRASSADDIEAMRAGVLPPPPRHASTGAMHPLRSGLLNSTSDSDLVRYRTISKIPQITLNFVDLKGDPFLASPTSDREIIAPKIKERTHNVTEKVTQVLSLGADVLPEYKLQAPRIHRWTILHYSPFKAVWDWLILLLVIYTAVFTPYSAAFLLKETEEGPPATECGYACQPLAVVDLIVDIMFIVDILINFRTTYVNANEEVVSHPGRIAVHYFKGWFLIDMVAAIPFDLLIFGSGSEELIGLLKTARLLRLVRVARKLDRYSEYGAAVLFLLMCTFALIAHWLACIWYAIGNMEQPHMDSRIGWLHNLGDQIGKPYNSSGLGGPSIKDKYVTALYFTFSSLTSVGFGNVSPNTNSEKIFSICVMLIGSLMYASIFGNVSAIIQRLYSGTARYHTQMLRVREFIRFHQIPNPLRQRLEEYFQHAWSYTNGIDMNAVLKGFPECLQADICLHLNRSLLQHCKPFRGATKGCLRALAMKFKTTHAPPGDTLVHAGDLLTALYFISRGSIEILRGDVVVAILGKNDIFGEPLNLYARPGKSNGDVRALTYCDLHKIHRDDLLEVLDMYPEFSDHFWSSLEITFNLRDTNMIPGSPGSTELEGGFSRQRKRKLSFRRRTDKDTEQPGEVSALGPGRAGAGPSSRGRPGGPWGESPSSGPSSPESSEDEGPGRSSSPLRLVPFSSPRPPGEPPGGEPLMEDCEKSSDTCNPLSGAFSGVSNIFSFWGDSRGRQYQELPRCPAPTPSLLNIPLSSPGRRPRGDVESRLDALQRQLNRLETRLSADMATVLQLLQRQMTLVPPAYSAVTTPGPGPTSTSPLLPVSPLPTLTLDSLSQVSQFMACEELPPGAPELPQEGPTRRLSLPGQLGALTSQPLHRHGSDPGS

Regarding `CN(C)CCCNc1[nH]c2cc(Cl)ccc2c(=O)c1C(=O)O` [Compound 7a, 7-chloro-2-((3-(dimethylamino)propyl)amino)-4-oxo-1,4-dihydroquinoline-3-carboxylic acid], the “antiviral activity against SARS-CoV-2 (in words)” value (“antiviral activity” for short) with SARS-CoV-2 is listed as “no activity”.
In the case of `O=C(O)c1c(Nc2cccc(F)c2)[nH]c2cc(Cl)ccc2c1=O` [Compound 9b, 7-chloro-2-((3-fluorophenyl)amino)-4-oxo-1,4-dihydroquinoline-3-carboxylic acid], the “hERG binding (in words)” value at hERG was “no hERG binding was detected”.
On to `O=C(O)c1c(Nc2cccc(F)c2)[nH]c2cc(F)c(F)cc2c1=O` [Compound 9f, 6,7-difluoro-2-((3-fluorophenyl)amino)-4-oxo-1,4-dihydroquinoline-3-carboxylic acid], for which the “antiviral activity” value with SARS-CoV-2 is listed as “had antiviral activity”.
In the case of `O=c1cc(Nc2cccc(F)c2)[nH]c2cc(F)c(F)cc12` [Compound 10, 6,7-difluoro-2-((3-fluorophenyl)amino)quinolin-4(1H)-one], in the data set on SARS-CoV-2, the “antiviral activity” value is “no activity”.

(Values after PMC9979702 (Bioorganic & Medicinal Chemistry Letters, 2023).)
